We go through one molecule from US20080220056A1, “Treatment for liver disease” (UNIVERSITY OF SOUTHAMPTON, priority 2002, published 2008).

The subject of the assay is rat hepatic stellate cells. Description: Low molecular weight DNA fragmentation (nucleosomal ladder) in rat hepatic stellate cells. Type of assay: cell-based. Conditions: rat HSC; 1.5 μmol/L; up to four hours. The method, then:
Hepatic stellate cells cultured in 35-mm diameter dishes (Greiner) were harvested, pelleted by centrifugation and DNA fragmentation determined as outlined elsewhere (Elsharkawy et al., Hepatology (1999) 30:761-769). Propidium Iodide Flow-Activated Cell Sorting Analysis Detached cells were pelleted by centrifugation, washed in PBS, and resuspended in HYPO buffer (0.1% wt/vol) Na3Citrate and 0.1% (wt/vol) Triton™ X-100 containing […] propidium iodide and incubated for 1 hour. The cells were then analyzed by fluorescence-activated cell sorter (FACS) with a Becton Dickinson (San Jose, Calif.) FACScan instrument using a 488 nm excitation wavelength with a band pass filter set at 530 nm. Attached cells were scraped in HYPO buffer after washing cells with PBS.
The effect of gliotoxin on the cleavage of DNA to a nucleosomal ladder was examined because this phenomenon is characteristic of apoptosis. Culture activated (14-day) rat hepatic stellate cells in six well plates were treated with either 0.05% (vol/vol) DMSO for four hours or 1.5 μmol/L gliotoxin for zero hours, half an hour, one hour, two hours or four hours. At each time point, both detached and attached cells were harvested together and low molecular weight DNA (20,000 g supernatant) fragmentation determined as outlined in the materials and methods section. At least three separate experiments were performed. 1 kilobase DNA ladder (Promega) was used as a molecular weight marker.
The effect of various compounds on DNA laddering was then determined. Culture-activated (14-day) rat hepatic stellate cells in six-well plates were treated with:
After fours hours of treatment, DNA fragmentation was determined.
Culture activated (14 day) rat hepatic stellate cells in six well plates were treated with: • (a) 0.05% (vol/vol) DMSO; • (b) 1.5 μmol/L gliotoxin; • (c) 1.5 μmol/L gliotoxin with 100 μmol/L tamoxifen; • (d) 1.5 μmol/L gliotoxin with […] actinomycin d; • (e) 1.5 μmol/L gliotoxin with 10 μmol/L cycloheximide; • (f) 1.5 μmol/L gliotoxin with 10 μmol/L cyclosporin; • (g) 1.5 μmol/L gliotoxin with […] m-iodobenzylguanidine; • (h) 1.5 μmol/L gliotoxin with 50 μmol/L quin-2-am; • (i) 50 μmol/L guin-2-am alone; • (j) 250 μmol/L m-iodobenzylguanidine; • (k) 10 μmol/L cyclosporin; • (l) 10 μmol/L cycloheximide; • (m) 1 μg/ml actinomycin d; or • (n) 100 μmol/L tamoxifen.
After four hours of treatment, DNA fragmentation was determined as outlined in Materials and Methods.

For `CN1C(=O)[C@]23CC4=CC=C[C@H](O)[C@H]4N2C(=O)[C@@]1(CO)SS3` [gliotoxin], the “cleavage of DNA to a nucleosomal ladder” value is given as “time dependent increase in DNA cleavage to a nucleosomal ladder”.
